Results as given in patent US4284786A, “5-Methylisoxazole-4-carboxylic-(4-trifluoromethyl)-anilide” (priority 1978, dated 1981).
Like-named read-outs stand apart in the source and are kept apart here.

Assays:
[1] = Acute toxicity, intraperitoneal administration to mice; design: species or system NMRI mice; settings: mouse, in vivo, ip
Source text: (§1) 6 animals were used per dose.

[2] = test system: adjuvant arthritis; experiment: Adjuvant arthritis, preventive experiment (Pearson); format: in vivo, male rats, Wistar-Lewis strain; settings: for ED50: Rattus norvegicus, oral, daily days 1-17, reduction in paw volume increase
Procedure: (§2) The investigations were carried out by the method of Pearson (Arthrit.Rheum. 2, 440 (1959)). The experimental animals used were male rats of a Wistar-Lewis strain, having a body weight of between 130 and 200 g. The compounds to be compared were administered orally, daily from the 1st to the 17th day of the experiment. Animals of the control group were given the solvent only. For each dosage, and in the control group, a group of 8 animals was used. The criterion of the activity was the reduction in the paw volume increase compared to the untreated control group. The ED50 values were determined graphically from the dose/effect curve.

[3] = test system: adjuvant arthritis; experiment: Adjuvant arthritis, Perper modification; format: in vivo, male rats, Wistar-Lewis strain; settings: for ED50: Rattus norvegicus, 504 h, oral, days 1-12, paw volume on 21st day, read-out: Adjuvant arthritis Perper (2) ED50; for Adjuvant arthritis Perper (2) ED50: result in words
Procedure: as §2
The experimental animals and experimental methods were as under 1., but the animals were only treated from the 1st to the 12th day of the experiment; after a treatment-free interval of 9 days, the paw volume was determined on the 21st day.

[4] = Sub-acute ulcerogenic action; format: in vivo, male Sprague-Dawley rats; settings: rat, in vivo, po; sub-acute UD50 / ED50; read-out: Therapeutic index sub-acute UD50/ED50
Procedure: (§3) The investigations were carried out in groups of 10 male Sprague-Dawley rats having a body weight of 200-300 g. 48 hours before administration of the compounds to be compared, and up to the time of killing the animals, food was withheld, but there was free access to drinking water. The rats were killed 24 hours after oral administration, and the stomach was removed under running water and inspected for lesions of the mucous membrane. All macroscopically visible lesions were rated as ulcers. The proportion of animals with ulcers at each dose was determined, as was the UD50 using the method of Litchfield and Wilcoxon (J.Pharmacol.exp.Ther. 96, 99 (1949)).
(§4) The experimental animals and the experimental method were as under 4, with the following modification: the compounds to be compared were administered orally once daily for 4 days to normally fed rats and the animals were killed on the 5th day, after food had been withheld for 24 hours. According to Shriver, this method gives more informative results than a single administration, since medicamentous therapy of rheumatic patients also requires repeated treatment (Toxicology and Appl. Pharmacology 32, 73 (1975)).

[5] = test system: stomach mucous membrane; experiment: Sub-acute ulcerogenic action; format: in vivo, male Sprague-Dawley rats; settings: sub-acute, relative to compound B
Procedure: as §3, §4

[6] = test system: rats; experiment: in vivo; settings: oral toxicity, relative to compound B
Procedure: (§5) The acute toxicity were determined by standard methods on NMRI mice and on rats of the Wister and Sprague-Dawley strains. 6 animals were used per dose. The LD50 values were determined by the method of Litchfield and Wilcoxon.

[7] = in vivo; settings: rat, in vivo, po
Procedure: as §5

[8] = in vivo; design: species or system male Sprague-Dawley rats; settings: rat, in vivo; for selectivity ratio: acute UD50 / ED50, read-out: Therapeutic index acute UD50/ED50
Procedure: as §3, with “ulcers.” for “ulcers. The proportion of animals with ulcers at each dose was determined, as was the UD50 using the method of Litchfield and Wilcoxon (J.Pharmacol.exp.Ther. 96, 99 (1949)).”

[9] = test system: allergic encephalomyelitis; experiment: Allergic encephalomyelitis (Levine); format: in vivo, male rats, Wistar-Lewis strain; settings: for Allergic encephalomyelitis (3) % inhibition: days 1-12, index on 11th day
Procedure: Known non-steroid antiphlogistic agents are here at most very slightly active.
The investigations were carried out by the method of Levine (Arch.int.Pharmacodyn. 230, 309 (1977)). The experimental animals used were male rats of a Wistar-Lewis strain having a body weight of between 180 and 220 g. The encephalomyelitis was induced by injection of complete Freund adjuvant to which freshly withdrawn homogenized rat spinal marrow extract and Bordetella pertussis vaccine had been added. The compounds to be compared were administered orally once a day from the 1st to the 12th day. For each dose, and for the control group, a group of 10 animals was used. From the 7th day of the experiment, the paralysis symptoms were grouped together daily in one index with the mortality and the change of body weight. […]
loss of 20 g of body weight in each case: 1 point […]
hindquarters paralysis: 3 points paralysis of the entire body: 5 points
The assessment criterion was the percentage inhibition of the index compared to untreated control animals on the 11th day of the experiment. On conclusion of the experiment, blood was taken from the surviving animals to determine the erythrocyte count and leucocyte count as well as the hematocrit.

[10] = test system: stomach mucous membrane; experiment: in vivo; design: species or system male Sprague-Dawley rats; settings: single oral dose, fasted rats, 24 hours
Procedure: as §3, with “ulcers.” for “ulcers. The proportion of animals with ulcers at each dose was determined, as was the UD50 using the method of Litchfield and Wilcoxon (J.Pharmacol.exp.Ther. 96, 99 (1949)).”

[11] = Acute toxicity, oral administration, mice; settings: mouse, in vivo; for selectivity ratio: oral LD50 in mice / ED50, read-out: Therapeutic index LD50/ED50
Source text: as §1

[12] = in the therapeutic dosage range

Compound | LD50 [1] | ED50 [2] | ED50 [3] | selectivity ratio [4] | LD50 [7] | selectivity ratio [7] | TD50 at 24 h ([8]; po) | selectivity ratio ([8]; po) | Allergic encephalomyelitis (3) % inhibition ([9]; dose 10 mg/kg oral) | Adjuvant arthritis Perper (2) ED50 ([3]; up to 20.0 (mg/kg)) | selectivity ratio [11] | other results
Cc1oncc1C(=O)Nc1ccc(C(F)(F)F)cc1 [compound A, 5-Methylisoxazole-4-carboxylic acid 4-trifluoromethyl-anilide] | 150 to 300 mg/kg | 2.3 mg/kg | 4.5 mg/kg | 33 | 235 mg/kg | 100 | 57 mg/kg | 25 | 100% | – | – | activity times greater than that of compound B ([2]; ED50, adjuvant arthritis, preventive, relative to compound B): 6.5 times; inhibition of immunopathological processes, Perper adjuvant arthritis test [3, 12]: inhibits immunopathological processes; therapeutic index (UD50/ED50; sub-acute) times greater than that of compound B [5]: 4.1 times; therapeutic range (LD50/ED50) times greater than that of compound B [6]: 2.4 times; inhibition of immunopathological processes, allergic encephalomyelitis test [9, 12]: inhibits immunopathological processes; 100% inhibition of the paralysis symptoms in allergic encephalomyelitis without gastro-intestinal bleeding ([9]; rat, in vivo): possible
Cc1oncc1C(=O)Nc1ccc(F)cc1 [compound B, 5-methylisoxazole-4-carboxylic acid 4-fluoroanilide] | 200 to 400 mg/kg | 15 mg/kg | 25 mg/kg | 8 | 620 mg/kg | 41 | – | 17 | – | – | – | Ulcerogenic character acute UD50 [10]: 250 mg/kg; Allergic encephalomyelitis (3) % inhibition ([9]; dose 25 mg/kg oral): 43%; Allergic encephalomyelitis (3): finding printed in the % inhibition column ([9]; dose 50 mg/kg oral): anaemia
Cc1oncc1C(=O)Nc1cccc(C(F)(F)F)c1 [compound C, 5-methylixoazole-4-carboxylic acid 3-trifluoromethylanilide] | 100 to 250 mg/kg | > 50 mg/kg | – | – | – | – | ~600 mg/kg | < 12 | 0% | inactive | < 15 | LD50 ([11]; po): 740 mg/kg
Cc1oncc1C(=O)Nc1cc(C(F)(F)F)cc(C(F)(F)F)c1 [compound D, 5-methylisoxazole-4-carboxylic acid 3,5-bis-trifluoromethylanilide] | > 500 mg/kg | ~50 mg/kg | > 50 mg/kg | – | – | – | – | ~2 | – | – | 50 | TD50 at 24 h ([8]; single oral dose, fasted rats, 24 hours, read-out: Ulcerogenic character acute UD50): 100 mg/kg
Cc1oncc1C(=O)Nc1ccccc1C(F)(F)F [compound E, 5-methylisoxazole-4-carboxylic acid 2-trifluoromethylanilide] | 300 to 6000 mg/kg | > 50 mg/kg | – | – | – | – | 350 mg/kg | < 7 | 0% | inactive | – | –
CCCCC1C(=O)N(c2ccccc2)N(c2ccccc2)C1=O [compound F, phenylbutazone] | – | 37 mg/kg | – | – | – | – | – | – | – | – | – | Adjuvant arthritis Perper (2) ED50 ([3]; up to 75 (mg/kg)): inactive; Allergic encephalomyelitis (3) % inhibition ([9]; dose 75 mg/kg oral): 0%
